Where two headings read alike, the source gives them in different places. Starred links: 1 amine or outer side, 2 acyl side, 3 side chain; linkers in the order of their positions; H or OH if unused. Positions of bridges follow the written chain, without caps; N, C: chain ends. Residues, ends and D or L forms follow the SMILES beside them. *: point of attachment. C20 diacid = O=C(O)CCCCCCCCCCCCCCCCCCC(=O)*; γGlu = O=C(O)[C@H](CCC(=O)[*:2])N[*:1]
Assay: Assay (IV) determination of solubility
Type: physicochemical
How it was run: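 Eight 100 mM buffers (glycylglycine pH 3.0–5.0, bistrispropane pH 6.0–8.0) each received an equal volume of polypeptide dissolved in water at ~500 nmol/ml. Soluble polypeptide was measured by HPLC following 18 hours at room temperature and centrifugation.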

[1] = pH 3, pH 3.0, read-out: Solubility pH 3.0
[2] = pH 4, pH 4.0, 18 hours at room temperature, Table 2, read-out: Solubility pH 4.0
[3] = pH 4, pH 4.0, read-out: Solubility pH 4.0
[4] = pH 5, pH 5.0, read-out: Solubility pH 5.0
[5] = pH 6, pH 6.0, read-out: Solubility pH 6.0
[6] = pH 6.5, pH 6.5, read-out: Solubility pH 6.5
[7] = pH 7, pH 7.0, 18 hours at room temperature, Table 3, read-out: Solubility pH 7.0
[8] = pH 7, pH 7.0, read-out: Solubility pH 7.0
[9] = pH 7.5, pH 7.5, read-out: Solubility pH 7.5
[10] = pH 8, pH 8.0, read-out: Solubility pH 8.0

Measured: solubility

CC[C@H](C)[C@H](NC(=O)[C@@H]1CCCN1C(=O)CNC(=O)[C@H](Cc1ccccc1)NC(=O)[C@H](CC(N)=O)NC(=O)[C@H](CC(N)=O)NC(=O)[C@H](CO)NC(=O)[C@H](CO)NC(=O)[C@H](Cc1c[nH]cn1)NC(=O)[C@H](CCCNC(=N)N)NC(=O)[C@H](CC(C)C)NC(=O)[C@H](Cc1ccccc1)NC(=O)[C@H](CCC(=O)O)NC(=O)[C@H](C)NC(=O)[C@H](CC(C)C)NC(=O)[C@H](CCCNC(=N)N)NC(=O)[C@H](CCC(N)=O)NC(=O)[C@@H](NC(=O)[C@H](C)NC(=O)[C@@H]1CSSC[C@H](NC(=O)[C@@H](N)CCCCNC(=O)CC[C@H](NC(=O)CCCCCCCCCCCCCCCCCCC(=O)O)C(=O)O)C(=O)N[C@@H](CC(N)=O)C(=O)N[C@@H]([C@@H](C)O)C(=O)N[C@@H](C)C(=O)N[C@@H]([C@@H](C)O)C(=O)N1)[C@@H](C)O)C(=O)N[C@@H](CC(C)C)C(=O)N1CCC[C@H]1C(=O)N1CCC[C@H]1C(=O)N[C@H](C(=O)N[C@@H](CC(N)=O)C(=O)N[C@H](C(=O)NCC(=O)N[C@@H](CO)C(=O)N[C@@H](CC(N)=O)C(=O)N[C@H](C(=O)N1CCC[C@H]1C(N)=O)[C@@H](C)O)C(C)C)[C@@H](C)O [Example 177, N-epsilon1-[(S)-4-Carboxy-4-(19-carboxynonadecanoylamino)butyryl]-[Glu14,Arg17,Pro37]-pramlintide]
> 200 µM: [1] | [2] | [3] | [4] | [5] | [6] | [7] | [8] | [9] | [10]

CC(C)C[C@H](NC(=O)[C@H](CCCNC(=N)N)NC(=O)[C@H](CCC(N)=O)NC(=O)[C@@H](NC(=O)[C@H](C)NC(=O)[C@@H]1CSSC[C@H](NC(=O)[C@H](CCCCN)NC(=O)CC[C@H](NC(=O)CCCCCCCCCCCCCCCCCCC(=O)O)C(=O)O)C(=O)N[C@@H](CC(N)=O)C(=O)N[C@@H]([C@@H](C)O)C(=O)N[C@@H](C)C(=O)N[C@@H]([C@@H](C)O)C(=O)N1)[C@@H](C)O)C(=O)N[C@@H](C)C(=O)N[C@@H](CCC(=O)O)C(=O)N[C@@H](Cc1ccccc1)C(=O)N[C@@H](CC(C)C)C(=O)N[C@H](C(=O)N[C@@H](Cc1c[nH]cn1)C(=O)N[C@@H](CO)C(=O)N[C@@H](CO)C(=O)N[C@@H](CO)C(=O)N[C@@H](CO)C(=O)N1CCC[C@H]1C(=O)NCC(=O)N[C@@H](C)C(=O)N1CCC[C@H]1C(=O)N[C@@H](CC(C)C)C(=O)N[C@@H](CO)C(=O)N[C@@H](CO)C(=O)N[C@H](C(=O)N[C@@H](CC(=O)O)C(=O)N[C@H](C(=O)NCC(=O)N[C@@H](CO)C(=O)N[C@@H](CC(=O)O)C(=O)N[C@H](C(=O)N1CCC[C@H]1C(N)=O)[C@@H](C)O)C(C)C)[C@@H](C)O)C(C)C [Example 171, N-alpha-[(S)-4-Carboxy-4-(19-carboxynonadecanoylamino)butyryl]-[Glu14,Ser21,Ser22,Pro23,Ala25,Pro26,Ser28,Ser29,Asp31,Asp35,Pro37]-pramlintide] ({C20 diacid-γGlu}-KCNTATCATQRLAEFLVHSSSSPGAPLSSTDVGSDTP-NH2; disulfide 2-7)
> 200 µM: [1] | [2] | [3] | [4] | [5] | [6] | [7] | [8] | [9] | [10]
